Data as given in patent US20260216144A1, “TARGETING MB2 OF THE MYC ONCOGENE AND ITS INTERACTION WITH TRRAP IN CANCER” (priority 2019, published 2026).

Biological target: MYC:TRRAP interaction (Homo sapiens, UniProt P01106+Q9Y4A5)
Experiment: MYC:TRRAP in-cell luminescence complementation assay (NanoBiT; SmB-MYC 1-190 and TRRAP 2033-2283-LgB in HeLa cells)
Assay type: cell-based
Conditions: Table 1; 46 primary hits at 10 uM; HeLa cells; triplicate measurements
Description: HeLa cells plated on Greiner 96-well TC-rated white plates with clear bottoms were used for the following measurements. Reverse transfections were carried out using LipoD293™ before cells were plated. A bluescript KS' plasmid (Addgene) was used as carrier DNA for transfections, and a pcDNA3.1 EGFP plasmid (ThermoFisher) was used as a fluorescence reporter. White light-reflecting film (USA Scientific) was used to cover the bottom of the plates for luminescence measurements. Black light-absorbing film was used to cover the top of the plates for fluorescence measurements. All measurements were taken on a SpectraMax i3 instrument (Molecular Devices).
Transfections were carried out with increasing DNA amounts (1-100 ng per well) of a CMV-driven LgB plasmid and SmB in excess or vice-versa. Background luminesce for the usable range and the amount of DNA needed for vast excess of LgB or SmB were noted. Next, complementation with vast excess either LgB or SmB was used to determine the expression of each of the indicated MYC and TRRAP constructs for a range of DNA amounts per well: 10-100 ng. An optimal ratio of DNA to equalize the expression of each MYC and TRRAP pair was calculated. Then, signal-to-noise ratios were calculated for the indicated MYC and TRRAP pairs, and the pair with the highest ratio was chosen. Finally, the chosen pair was used to determine the optimal DNA transfection mixture. It was determined to be 6.7 ng of a plasmid with a MYC construct, 60 ng of a plasmid with a TRRAP construct and 33.3 ng of the pcDNA 3.1 EGFP plasmid, for each well in a 96-well plate. Unless otherwise indicated, these were the ratios of DNA transfected for this type of assay.
HeLa cells were transfected as above using LipoD293™ with a mixture of SmB-MYC 1-190, TRRAP 2033-2283-LgB, and EGFP in CMV-driven plasmids at the same optimized ratio described above. Two days post-transfection, the media in each well was replaced with fresh media containing each compound from the NCI's sets at 25 μM. Cells were incubated for 2 h with each compound, and luminescence and fluorescence measurements were recorded for each well. Changes in luminescence were normalized to fluorescence. The following pre-plated compound sets were obtained from the NCI/DTP chemical repository and used for this screen:
These chemical sets were used to discover novel small-molecule inhibitors of the MYC:TRRAP complex. SmB-MYC 1-190, TRRAP 2033-2283-LgB, and EGFP were transfected into HeLa cells. Two days post-transfection, compounds were added to the media at 25 μM and cells were incubated for 2h. Luminescence and fluorescence were recorded for each well containing one of the compounds. Changes in luminescence measurements were normalized to fluorescence measurements.
Afterwards, only molecules that reduced luminescence levels to <50% RLU were considered. This set of 46 compounds were incubated at 10 μM with vector-expressing cells. Luminescence complementation was measured and repeated in triplicate measurements. In addition, HeLa cells expressing LgB and SmB alone were incubated with the same compounds to rule out potentially artificial results due to inhibition of luciferase or its complementation. Molecules that induces any significant reduction in luminescence (<0.6) during this control assay were not considered further. Of 2947 molecules, 17 were chosen for further testing and ordered from the NCI/DTP Open Chemical Repository. FIG. 16 describes these chosen compounds.
Using the luminescence assay above as a readout for the MYC:TRRAP interaction, we used a robotic liquid handler to evaluate 2987 additional compounds (25 μM). All primary hits were counter-screened for any activity against the luciferase enzyme itself and for any effects on the expression of the fusion proteins. We set a threshold of 50% inhibition to consider compounds further. Only 17 out of 2987 passed all these criteria (0.6%). […]

MYC:TRRAP interaction, sequence (P01106 16-205): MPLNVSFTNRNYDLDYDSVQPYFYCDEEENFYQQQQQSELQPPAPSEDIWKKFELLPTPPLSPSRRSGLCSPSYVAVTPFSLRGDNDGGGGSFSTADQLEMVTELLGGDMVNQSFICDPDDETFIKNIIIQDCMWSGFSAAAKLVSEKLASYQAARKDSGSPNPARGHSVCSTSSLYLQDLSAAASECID
MYC:TRRAP interaction, sequence (Q9Y4A5 2051-2301): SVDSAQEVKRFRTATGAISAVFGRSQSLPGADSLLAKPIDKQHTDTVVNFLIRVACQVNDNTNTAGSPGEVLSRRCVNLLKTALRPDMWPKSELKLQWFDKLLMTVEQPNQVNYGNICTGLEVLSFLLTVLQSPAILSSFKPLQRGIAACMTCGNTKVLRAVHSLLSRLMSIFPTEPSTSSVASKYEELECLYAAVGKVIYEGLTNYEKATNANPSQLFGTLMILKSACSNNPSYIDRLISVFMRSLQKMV

Structure (SMILES) | % Inhibition 10 uM
COc1c2c(c(CC=C(C)C)c3oc(=O)c(-c4ccc(O)cc4)c(O)c13)OC(C)(C)C=C2 [Compound 24, 6-hydroxy-7-(4-hydroxyphenyl)-5-methoxy-2,2-dimethyl-10-(3-methylbut-2-enyl)pyrano[3,2-g]chromen-8-one] | 41.01%
CC(C)(C)c1cc(C=C(C#N)C#N)cc(C(C)(C)C)c1O [Compound 25, 2-[(3,5-ditert-butyl-4-hydroxyphenyl)methylidene] propanedinitrile] | 42.52%
Cc1ccc(NC(=S)C#N)c(C)c1 [Compound 26, 1-cyano-N-(2,4-dimethylphenyl) methanethioamide] | 90.89%
CC1=C(CCC(=O)O)c2cc3nc(cc4[nH]c(cc4C)cc4[nH]c(cc1n2)cc4C)C(C)=C3CCC(=O)O [Compound 27, 3-[18-(2-carboxyethyl)-3,8,13,17-tetramethyl-22,23-dihydroporphyrin-2-yl]propanoic acid] | 75.42%
O=C1c2ccccc2C(=O)c2sc(Nc3ccc(Cl)cc3)nc21 [Compound 28, 2-(4-chloroanilino)benzo [f][1,3] benzothiazole-4,9-dione] | 66.32%
COc1c(OC)c2c3c(nccc3c1OC)-c1cc(=O)c(OC)ccc1-2 [Compound 30] | 68.68%
Cc1cc2c(C(C)C)c(O)c(O)c(C=O)c2c(O)c1-c1c(C)cc2c(C(C)C)c(O)c(O)c(C=O)c2c1O [Compound 31, 7-(8-formyl-1,6,7-trihydroxy-3-methyl-5-propan-2-ylnaphthalen-2-yl)-2,3,8-trihydroxy-6-methyl-4-propan-2-ylnaphthalene-1-carbaldehyde] | 68.27%
FC(F)(F)c1cccc(-c2nc3nc(Cl)c(Cl)[nH]c-3n2)c1 [Compound 32, 5,6-dichloro-2-[3-(trifluoromethyl)phenyl]-1H-imidazo[4,5-b]pyrazine] | 80.85%
CC1=C(C)C(=O)O[C@H]([C@](C)(O)[C@]2(O)CC[C@@]3(O)[C@@H]4C[C@H]5O[C@]56CC=CC(=O)[C@]6(C)[C@H]4CC[C@]23C)C1 [Compound 33, (1S,2R,7S,9R,11R, 12R,15S,16S)-15-[(1S)-1-[(2S)-4,5-dimethyl-6-oxo-2,3-dihydropyran-2-yl]-1-hydroxyethyl]-12,15-dihydroxy-2,16-dimethyl-8-oxapentacyclo [9.7.0.02, 7.07,9.012,16] octadec-4-en-3-one] | 29.74%
COc1cccc2c1C(=O)c1c(O)c3c(c(O)c1C2=O)C[C@@](O)(C(C)=O)C[C@@H]3OC1CC(N(Cc2ccccc2)Cc2ccccc2)C(O)C(C)O1.Cl (stereo partly drawn) [Compound 34, (7S,9S)-9-acetyl-7-[4-(dibenzylamino)-5-hydroxy-6-methyloxan-2-yl]oxy-6,9,11-trihydroxy-4-methoxy-8,10-dihydro-7H-tetracene-5,12-dione; hydrochloride] | 78.65%
CN(C)c1ccc(/C=C/C(=O)c2cc(Cl)ccc2O)cc1 [Compound 35, (E)-1-(5-chloro-2-hydroxyphenyl)-3-[4-(dimethylamino)phenyl]prop-2-en-1-one] | 50.79%
N[C@@H](Cc1ccc2oc3cc(=O)c4ccccc4c-3nc2c1)C(=O)O.O=[N+]([O-])O [Compound 36, (2S)-2-amino-3-(5-oxobenzo[a]pheno-xazin-10-yl)propanoic acid; nitric acid] | 73.39%
Cc1ccc2c(c1)C=C/C(=C\C=C1/C=CC(=O)c3ncccc31)N2C [Compound 37, 5-[2-(1,6-dimethylquinolin-1-ium-2-yl)ethenyl]quinolin-8-ol] | 84.83%
CC1Oc2cc3c(-c4c(O)cc(O)c5c(O)c6c(cc45)OC(C)C(C)C6=O)c(O)cc(O)c3c(O)c2C(=O)C1C (stereo not drawn) [Compound 38] | 76.03%
COc1cc2c3c(cc4ccccc4c3c1O)N(C)CC2 [Compound 39] | 73.42%
